Measured values from US10124085B2, “Antimicrobial and antiviral hygienic products” (priority 2014, dated 2018).

Legend:
Aspergillus niger = assay: Modified disc diffusion method; assay type: cell-based; design: key: +sign indicates that the boron compounds had antimicrobial activity.; −sign indicates that there is no antimicrobial activity; conditions: disc immersed in pulverized boron compound; Nystatin 30 μg/disc; 25±1° C., 72 hours
Penicillium expansum = assay: Modified disc diffusion method; assay type: cell-based; design: key: +sign indicates that the boron compounds had antimicrobial activity.; −sign indicates that there is no antimicrobial activity; conditions: disc immersed in pulverized boron compound; Nystatin 30 μg/disc; 25±1° C., 72 hours
Candida glabrata = assay: Modified disc diffusion method; assay type: cell-based; design: key: +sign indicates that the boron compounds had antimicrobial activity.; −sign indicates that there is no antimicrobial activity; conditions: disc immersed in pulverized boron compound; Nystatin 30 μg/disc; 36±1° C., 48 hours
Staphylococcus aureus = assay: Modified disc diffusion method; assay type: cell-based; design: key: +sign indicates that the boron compounds had antimicrobial activity.; −sign indicates that there is no antimicrobial activity; conditions: disc immersed in pulverized boron compound; Ofloxacin 10 μg/disc; 36±1° C., 24 hours
Fusarium oxysporum = assay: Modified disc diffusion method; assay type: cell-based; design: key: +sign indicates that the boron compounds had antimicrobial activity.; −sign indicates that there is no antimicrobial activity; conditions: disc immersed in pulverized boron compound; Nystatin 30 μg/disc; 25±1° C., 72 hours
Pseudomonas aeruginosa = assay: Modified disc diffusion method; assay type: cell-based; design: key: +sign indicates that the boron compounds had antimicrobial activity.; −sign indicates that there is no antimicrobial activity; conditions: disc immersed in pulverized boron compound; Ofloxacin 10 μg/disc; 36±1° C., 24 hours
Penicillium vinaceum = assay: Modified disc diffusion method; assay type: cell-based; design: key: +sign indicates that the boron compounds had antimicrobial activity.; −sign indicates that there is no antimicrobial activity; conditions: disc immersed in pulverized boron compound; Nystatin 30 μg/disc; 25±1° C., 72 hours
Escherichia coli = assay: Modified disc diffusion method; assay type: cell-based; design: key: +sign indicates that the boron compounds had antimicrobial activity.; −sign indicates that there is no antimicrobial activity; conditions: disc immersed in pulverized boron compound; Ofloxacin 10 μg/disc; 36±1° C., 24 hours
Candida albicans = assay: Modified disc diffusion method; assay type: cell-based; design: key: +sign indicates that the boron compounds had antimicrobial activity.; −sign indicates that there is no antimicrobial activity; conditions: disc immersed in pulverized boron compound; Nystatin 30 μg/disc; 36±1° C., 48 hours
[1] = system: all of the tested microorganisms; assay type: cell-based
Botrytis cinerea [2] = assay: Modified disc diffusion method; assay type: cell-based; design: key: +sign indicates that the boron compounds had antimicrobial activity.; −sign indicates that there is no antimicrobial activity; conditions: disc immersed in pulverized boron compound; Nystatin 30 μg/disc; 25±1° C., 72 hours
adenovirus = conditions: 0.02% chlorhexidine gluconate; 90-minute exposure at room temperature; cited from earlier work
[3] = system: HEp-2 cells (ATCC CCL-23)
Herpesvirus hominis = conditions: 0.02% chlorhexidine gluconate; 90-minute exposure at room temperature; cited from earlier work
poliovirus = conditions: 0.02% chlorhexidine gluconate; 90-minute exposure at room temperature; cited from earlier work
[4] = system: Human Herpes simplex virus type 1 (HSV-1) MacIntyre strain; assay: Antiviral activity test in Vero cell culture (TCID50, Spearman-Karber); assay type: cell-based; conditions: for Reduction ratio in virus titration / Virus titration with Chlorhexidine gluconate: 0.1%, 20° C.; for Virus titration with Chlorhexidine gluconate: reference virus 7.3
[5] = system: Human adenovirus type 5 Adenoid 75 strain; assay: Antiviral activity test in HEp-2 cell culture (TCID50, Spearman-Karber); assay type: cell-based; conditions: for Reduction ratio in virus titration / Virus titration with Chlorhexidine gluconate: 0.1%, 20° C.; for Virus titration with Chlorhexidine gluconate: reference virus 5.5
[6] = system: Poliovirus type 1 Chat strain; assay type: cell-based
enteric bacteria = conditions: cited from earlier work
[7] = system: various bacterial strains; conditions: 10-minute exposure; 0.02% chlorhexidine solution; cited from earlier work
Penicillium expansium = conditions: cited from earlier work
Botrytis cinerea [8] = conditions: 1% concentration; cited from earlier work
micrococci = conditions: cited from earlier work
Propionibacterium acnes = conditions: cited from earlier work
streptococci = conditions: cited from earlier work
[9] = room temperature (20° C.), clean and polluted media, 1 and 60 minute application periods
[10] = used directly without being diluted, room temperature (20° C.), 1 and 60 minute application periods

O.O.O.O.O.[Na+].[Na+].[O-]B1OB2OB([O-])OB(O1)O2 [BP, Borax pentahydrate]
Antimicrobial activity (inhibition zone) (Aspergillus niger): + | Antimicrobial activity (inhibition zone) (Penicillium expansum): + | Antimicrobial activity (inhibition zone) (Candida glabrata): + | Antimicrobial activity (inhibition zone) (Staphylococcus aureus): + | Antimicrobial activity (inhibition zone) (Fusarium oxysporum): + | Antimicrobial activity (inhibition zone) (Pseudomonas aeruginosa): + | Antimicrobial activity (inhibition zone) (Penicillium vinaceum): + | Antimicrobial activity (inhibition zone) (Escherichia coli): + | Antimicrobial activity (inhibition zone) (Candida albicans): + | concentration giving the most effective antimicrobial (antifungal, anticandidal and antibacterial) results [1]: 5.5 mg/cm^2 | Antimicrobial activity (inhibition zone) (Botrytis cinerea [2]): +

N=C(NCCCCCCNC(=N)NC(=N)Nc1ccc(Cl)cc1)NC(=N)Nc1ccc(Cl)cc1.O=C(O)[C@H](O)[C@@H](O)[C@H](O)[C@H](O)CO.O=C(O)[C@H](O)[C@@H](O)[C@H](O)[C@H](O)CO [Chlorhexidine gluconate]
activity against virus (adenovirus): ineffective | cytopathic effect on the cells in the cell culture [3]: showed cytopathic effect | lowest ratio which does not show cytopathic effect [3]: 0.1% | reduction of virus titration (Herpesvirus hominis): more than 99% | activity against virus (poliovirus): ineffective | Reduction ratio in virus titration ([4]; 1 minute, Clean medium): 4 Logarithmic TCID50 | Virus titration with Chlorhexidine gluconate ([4]; 1 minute, Clean medium): 2.3 Logarithmic TCID50 | Reduction ratio in virus titration ([4]; 1 minute, Polluted medium): 4 Logarithmic TCID50 | Virus titration with Chlorhexidine gluconate ([4]; 1 minute, Polluted medium): 2.3 Logarithmic TCID50 | Reduction ratio in virus titration ([4]; 60 minutes, Clean medium): 4 Logarithmic TCID50 | Virus titration with Chlorhexidine gluconate ([4]; 60 minutes, Clean medium): 2.3 Logarithmic TCID50 | Reduction ratio in virus titration ([4]; 60 minutes, Polluted medium): 4 Logarithmic TCID50 | Virus titration with Chlorhexidine gluconate ([4]; 60 minutes, Polluted medium): 2.3 Logarithmic TCID50 | reduction in virus titration [4, 9]: at least 4 log | active against virus [4, 10]: 99.9% | Reduction ratio in virus titration ([5]; 1 minute, Clean medium): 4.0 Logarithmic TCID50 | Virus titration with Chlorhexidine gluconate ([5]; 1 minute, Clean medium): 1.5 Logarithmic TCID50 | Reduction ratio in virus titration ([5]; 1 minute, Polluted medium): 4.0 Logarithmic TCID50 | Virus titration with Chlorhexidine gluconate ([5]; 1 minute, Polluted medium): 1.5 Logarithmic TCID50 | Reduction ratio in virus titration ([5]; 60 minutes, Clean medium): 4.5 Logarithmic TCID50 | Virus titration with Chlorhexidine gluconate ([5]; 60 minutes, Clean medium): 1.0 Logarithmic TCID50 | Reduction ratio in virus titration ([5]; 60 minutes, Polluted medium): 4.0 Logarithmic TCID50 | Virus titration with Chlorhexidine gluconate ([5]; 60 minutes, Polluted medium): 1.5 Logarithmic TCID50 | reduction in virus titration [5, 9]: at least 4 log | active against virus [5, 10]: 99.9% | reduction in virus titration [6]: at least 4 log | Reduction ratio in virus titration ([6]; 0.1%, 20° C.): 4.2 Logarithmic TCID50 | Virus titration with Chlorhexidine gluconate ([6]; 0.1%, 20° C.): 1.3 Logarithmic TCID50

C[C@@H]1[C@H](O)[C@@H](C)/C=C/C=C/CC/C=C/C=C/C=C/C=C/C(O[C@H]2O[C@H](C)[C@@H](O)[C@H](N)[C@@H]2O)CC2O[C@](O)(CC(O)C(O)CCC(O)CC(O)CC(O)CC(=O)O[C@H]1C)CC(O)C2C(=O)O (stereo partly drawn) [Nystatin]
Antimicrobial activity (inhibition zone) (Aspergillus niger): + | Antimicrobial activity (inhibition zone) (Penicillium expansum): + | Antimicrobial activity (inhibition zone) (Candida glabrata): + | Antimicrobial activity (inhibition zone) (Fusarium oxysporum): + | Antimicrobial activity (inhibition zone) (Penicillium vinaceum): + | Antimicrobial activity (inhibition zone) (Candida albicans): + | Antimicrobial activity (inhibition zone) (Botrytis cinerea [2]): +

CC1COc2c(N3CCN(C)CC3)c(F)cc3c(=O)c(C(=O)O)cn1c23 (stereo not drawn) [Ofloxacin]
Antimicrobial activity (inhibition zone) (Staphylococcus aureus): + | Antimicrobial activity (inhibition zone) (Pseudomonas aeruginosa): + | Antimicrobial activity (inhibition zone) (Escherichia coli): +

O.O.O.O.[Na+].[O-]B1OO1 [SPT, Sodium perborate tetrahydrate]
Antimicrobial activity (inhibition zone) (Aspergillus niger): + | Antimicrobial activity (inhibition zone) (Penicillium expansum): + | Antimicrobial activity (inhibition zone) (Candida glabrata): + | Antimicrobial activity (inhibition zone) (Staphylococcus aureus): + | Antimicrobial activity (inhibition zone) (Fusarium oxysporum): + | Antimicrobial activity (inhibition zone) (Pseudomonas aeruginosa): + | Antimicrobial activity (inhibition zone) (Penicillium vinaceum): + | Antimicrobial activity (inhibition zone) (Escherichia coli): + | Antimicrobial activity (inhibition zone) (Candida albicans): + | concentration giving the most effective antimicrobial (antifungal, anticandidal and antibacterial) results [1]: 5.5 mg/cm^2 | Antimicrobial activity (inhibition zone) (Botrytis cinerea [2]): +

OB(O)O [boric acid]
antibacterial activity (enteric bacteria): has antibacterial activity

[H]/N=C(\N/C(=N/[H])NCCCCCCNC(=N)NC(=N)Nc1ccc(Cl)cc1)Nc1ccc(Cl)cc1 [chlorhexidine]
inhibition of microorganisms [7]: 99.99%

[K+].[K+].[O-]B1OB2OB([O-])OB(O1)O2 [potassium tetraborate]
minimum concentration preventing micelle growth (Penicillium expansium): 0.1% | control of mold causing disease on the grapes (Botrytis cinerea [8]): could control

Oc1cc(Cl)ccc1Oc1ccc(Cl)cc1Cl [triclosan]
effectiveness relative to hexachlorophene (micrococci): less effective | effectiveness relative to hexachlorophene (Propionibacterium acnes): less effective | effectiveness relative to hexachlorophene (streptococci): less effective

Sodium Borate [SB]
Antimicrobial activity (inhibition zone) (Aspergillus niger): + | Antimicrobial activity (inhibition zone) (Penicillium expansum): + | Antimicrobial activity (inhibition zone) (Candida glabrata): + | Antimicrobial activity (inhibition zone) (Staphylococcus aureus): + | Antimicrobial activity (inhibition zone) (Fusarium oxysporum): + | Antimicrobial activity (inhibition zone) (Pseudomonas aeruginosa): + | Antimicrobial activity (inhibition zone) (Penicillium vinaceum): + | Antimicrobial activity (inhibition zone) (Escherichia coli): + | Antimicrobial activity (inhibition zone) (Candida albicans): + | concentration giving the most effective antimicrobial (antifungal, anticandidal and antibacterial) results [1]: 4 mg/cm^2 | Antimicrobial activity (inhibition zone) (Botrytis cinerea [2]): +
